Assay results: US20250160330A1, “METHOD FOR CONTROLLING HARMFUL ARTHROPODS OR HARMFUL NEMATODES USING ZOANTHAMINE ANALOG” (SUMITOMO CHEMICAL COMPANY, LIMITED, priority 2022, published 2025)
Read-outs that look alike come from different tables or passages of the source.

Experiments:
[1] = tested on: cotton worm (Spodoptera litura); test: Test method 2: foliar spray on cabbage seedling, cotton worm larvae; assay type: in vivo; details: 144 h, read-out: mortality of insects
Experimental: (§1) Test compounds are made to a formulation according to a similar method to that described in the Formulation Example 5, and thereto is added water containing 0.03 v/v % of Shindain (registered trademark) to prepare a diluted solution containing a prescribed concentration of the test compound.
(§2) Cabbage (Brassicae oleracea) seedling (on the developmental stage of the third to fourth true leaf) is planted in a cup, and the diluted solutions are sprayed into the seedling at a ratio of 20 mL/seedling. Thereafter, ten (10) cotton worm (Spodoptera litura) at the third instar larval stage are released. After 6 days, the number of the surviving insects is counted, and the mortality of insects is calculated by the following equation.

[2] = tested on: western flower thrips (Frankliniella occidentalis); test: Test method 5: sprayed cucumber leaf, western flower thrips larvae; assay type: in vivo; details: 144 h, read-out: mortality of insects
Experimental: as §1
Cucumber (Cucumber sativus) seedling (on the developmental stage of the second true leaf) is planted in a cup, and the diluted solutions are sprayed into the seedling at a ratio of 10 mL/seedling. Thereafter, the second true leaf is cut, and the cut leaf was placed in the cup, and approximately twenty (20) of larvae of western flower thrips (Frankliniella occidentalis) larvae are released onto the leaf. After 6 days, the number of the surviving insects is examined and the mortality of insects is calculated by the following equation.

[3] = tested on: northern house mosquitos (Culex pipiens pipiens); test: Test method 8: coated container contact test, northern house mosquito female adults; assay type: in vivo; details: 24 h, read-out: mortality of insects
Experimental: The test compounds are dissolved with acetone containing a surfactant, and the solution was then poured into a container of 20 mL contents, and the solution was coating uniformly in the inner face of the container such that the test compound is made 10 mg/m^2, and the surfactant is made 40 mg/m^2, and the container is dried.
Five (5) of female adult of northern house mosquitos (Culex pipiens pipiens) are placed in the contained, and the contained is put the lid. After the passing of the prescribed times, the state of the northern house mosquitos are examined, and the mortality is calculated by the following equation.

[4] = tested on: cotton aphids (Aphis gossypii); test: Test method 3: foliar spray on cucumber seedling infested with cotton aphids; details: read-out: mortality of insects
[5] = tested on: silverleaf whiteflies (Bemisia tabaci); test: Test method 6: foliar spray on tomato seedling with silverleaf whitefly larvae; details: in Solanum lycopersicum, 168 h, read-out: mortality of insects
[6] = tested on: cotton worm (Spodoptera litura); test: Test method 1: foliar spray on cabbage seedling, cotton worm larvae; assay type: in vivo; details: 144 h, read-out: mortality of insects
Experimental: The test compounds are made to a formulation according to a similar method to that described in the Formulation Example 5, and thereto is added water containing 0.03 v/v % of Shindain (registered trademark) to prepare a diluted solution containing a prescribed concentration of the test compound.
as §2

[7] = tested on: brown planthoppers (Nilaparvata lugens); test: Test method 4: foliar spray on rice seedling, brown planthopper larvae; assay type: in vivo; details: 144 h, read-out: mortality of insects
Experimental: as §1
Rice (Oryza sativa) seedling (on the developmental stage of the second true leaf) is planted in a cup, and the diluted solutions are sprayed into the seedling at a ratio of 10 mL/seedling. Thereafter, twenty (20) of 3rd instar larvae of brown planthoppers (Nilaparvata lugens) are released onto the rice leaves. After 6 days, the number of the surviving insects is examined and the mortality of insects is calculated by the following equation.

[8] = 200 ppm, spray 20 mL/seedling on cabbage, third instar larvae, after 6 days, 25° C. (test method 2)
[9] = 200 ppm, spray 10 mL/seedling on cucumber, cut second true leaf, larvae, after 6 days, 25° C.
[10] = 10 mg/m^2 coated on inner face of container, female adults, after one (1) day, 25° C.
[11] = 200 ppm, spray 20 mL/seedling on cabbage, third instar larvae, after 6 days, 25° C.
[12] = 200 ppm, spray 10 mL/seedling on rice, 3rd instar larvae, after 6 days, 25° C.

| Compound | mortality at 200 ppm [1, 8] [%] | mortality at 200 ppm [2, 9] [%] | mortality at 10 mg/m2 [3, 10] [%] | mortality at 200 ppm [4] [%] | mortality at 200 ppm [5] [%] | mortality at 200 ppm [6] [%] | mortality at 200 ppm [1] [%] | mortality at 200 ppm [7] [%] | mortality at 200 ppm [2] [%] | mortality at 10 mg/m2 [3] [%] | mortality at 200 ppm [6, 11] [%] | mortality at 200 ppm [7, 12] [%] |
| --- | --- | --- | --- | --- | --- | --- | --- | --- | --- | --- | --- | --- |
| CC1CC(O)C2CC(=O)[C@H]3[C@@](C)(CC4N5C[C@H]6C[C@H](C)C[C@]5(CC[C@@]4(C)[C@@]3(C)CC(=O)O)O6)C2C1 (stereo partly drawn) [EE-6] | ≥ 80 | ≥ 90 | ≥ 80 | – | – | – | – | – | – | – | – | – |
| COC(=O)C[C@@]1(C)[C@H]2C(=O)CC3C(=O)CC(C)CC3[C@]2(C)C=C2N3C[C@H]4C[C@H](C)C[C@]3(CC[C@]21C)O4 (stereo partly drawn) [EE-1] | – | ≥ 90 | ≥ 80 | ≥ 90 | ≥ 90 | – | – | – | – | – | – | – |
| C[C@@H]1CC(=O)[C@H]2CC(=O)[C@H]3[C@@](C)(C[C@@]45OC(=O)C[C@]3(C)[C@]4(C)CC[C@]34C[C@@H](C)C[C@H](CN35)O4)[C@@H]2C1 [A-18] | – | – | – | ≥ 90 | – | ≥ 80 | ≥ 80 | ≥ 90 | ≥ 90 | – | – | – |
| Cc1cc(O)c2c(c1)[C@]1(C)C[C@@]34OC(=O)C[C@@](C)([C@H]1C(=O)[C@@H]2C)[C@]3(C)CC[C@@]12C[C@@H](C)C[C@H](CN14)O2 [B-1] | – | – | – | ≥ 90 | – | ≥ 80 | ≥ 80 | – | ≥ 90 | ≥ 80 | – | – |
| CC1=CC(=O)[C@@H]2[C@@H](C1)[C@]1(C)CC3N4C[C@H](O)C[C@H](C)C[C@@H]4CC[C@@]3(C)[C@@](C)(CC(=O)O)[C@H]1C(=O)[C@@H]2C (stereo partly drawn) [GG-3] | – | – | – | ≥ 90 | – | ≥ 80 | – | ≥ 90 | ≥ 90 | ≥ 80 | – | – |
| COC(=O)C[C@@]1(C)[C@H]2C(=O)[C@H](C)[C@@H]3C(=O)C=C(C)C[C@H]3[C@]2(C)C[C@H]2N3C[C@H]4C[C@H](C)C[C@]3(CC[C@]21C)O4 [EE-5] | – | – | – | ≥ 90 | – | ≥ 80 | ≥ 80 | ≥ 90 | ≥ 90 | ≥ 80 | – | – |
| CC[C@H]1C(=O)[C@H]2[C@@](C)(C[C@@]34OC(=O)C[C@]2(C)[C@]3(C)CC[C@]23C[C@@H](C)C[C@H](CN24)O3)[C@@H]2CC(C)=CC(=O)[C@H]21 [AA-3] | – | – | – | ≥ 90 | ≥ 90 | ≥ 80 | ≥ 80 | ≥ 90 | – | ≥ 80 | – | – |
| CC1CC(O)[C@H]2CC(=O)[C@H]3[C@@](C)(CC4N5C[C@H](O)C[C@H](C)CC5CC[C@@]4(C)[C@@]3(C)CC(=O)O)[C@@H]2C1 (stereo partly drawn) [GG-1] | – | – | – | – | – | – | – | ≥ 90 | – | ≥ 80 | – | – |
| COC(=O)C[C@@]1(C)[C@H]2C(=O)C[C@@H]3C(=O)C=C(C)C[C@H]3[C@]2(C)C=C2N3C[C@H]4C[C@H](C)C[C@]3(CC[C@]21C)O4 [E-1] | – | – | – | ≥ 90 | ≥ 90 | – | ≥ 80 | ≥ 90 | ≥ 90 | ≥ 80 | – | – |
| Cc1cc(O)c2c(c1)[C@]1(C)C[C@@]34OC(=O)C[C@@](C)([C@H]1C(=O)C2)[C@]3(C)CC[C@]12C[C@@H](C)C[C@H](CN14)O2 [B-2] | – | – | – | ≥ 90 | – | ≥ 80 | ≥ 80 | ≥ 90 | – | ≥ 80 | – | – |
| CC1=CC(=O)[C@@H]2[C@@H](C1)[C@]1(C)C[C@@]34OC(=O)C[C@@](C)([C@H]1C(=O)[C@@H]2CO)[C@]3(C)CCC12C[C@@H](C)C[C@H](CN14)O2 [A-1] | – | – | – | ≥ 90 | ≥ 90 | ≥ 80 | ≥ 80 | ≥ 90 | – | – | – | – |
| CC1=CC(=O)[C@@H]2[C@@H](C1)[C@@]1(C)[C@H](C(=O)[C@@H]2C)[C@]2(C)CC(=O)O[C@@]3([C@H]1Cl)N1C[C@H]4C[C@H](C)C[C@]1(CC[C@@]23C)O4 [AA-2] | – | – | – | ≥ 90 | ≥ 90 | ≥ 80 | ≥ 80 | ≥ 90 | ≥ 90 | ≥ 80 | – | – |
| CC(=O)Oc1cc(C)cc2c1CC(=O)[C@H]1[C@@]2(C)C[C@@]23OC(=O)C[C@]1(C)[C@]2(C)CC[C@]12C[C@@H](C)C[C@H](CN13)O2 [BB-1] | ≥ 80 | ≥ 90 | ≥ 80 | ≥ 90 | – | – | – | – | – | – | ≥ 80 | – |
| CC1=CC(=O)[C@@H]2[C@@H](C1)[C@]1(C)C[C@H]3N4C[C@H]5C[C@H](C)C[C@]4(CC[C@@]3(C)[C@@](C)(CC(=O)O)[C@H]1C(=O)[C@@H]2C)O5 [EE-3] | – | ≥ 90 | ≥ 80 | ≥ 90 | – | – | – | – | – | – | ≥ 80 | ≥ 90 |
| CC1CC(=O)[C@@H]2[C@@H](C1)[C@]1(C)C[C@@]34OC(=O)C[C@@](C)([C@H]1C(=O)[C@@H]2C)[C@]3(C)CC[C@]12C[C@@H](C)C[C@H](CN14)O2 (stereo partly drawn) [A-19] | – | – | – | ≥ 90 | – | ≥ 80 | ≥ 80 | ≥ 90 | ≥ 90 | ≥ 80 | – | – |
| COC(=O)C[C@@]1(C)[C@H]2C(=O)C[C@@H]3C(=O)CC(C)C[C@H]3[C@]2(C)CC2N3C[C@H](O)C[C@H](C)CC3CC[C@]21C (stereo partly drawn) [GG-2] | – | – | – | – | – | – | – | – | – | ≥ 80 | – | – |
| COC(=O)C[C@@]1(C)[C@H]2C(=O)[C@H](C)[C@@H]3C(=O)C=C(C)C[C@H]3[C@]2(C)C=C2N3C[C@H]4C[C@H](C)C[C@]3(CC[C@]21C)O4 [EE-4] | ≥ 80 | ≥ 90 | ≥ 80 | – | – | – | – | – | – | – | – | ≥ 90 |
| CC1CC(=O)C2CC(=O)[C@H]3[C@@](C)(CC4=[N+]5C[C@H]6C[C@H](C)C[C@]5(CC[C@@]4(C)[C@@]3(C)CC(=O)O)O6)C2C1 (stereo partly drawn) [EE-2] | – | – | – | ≥ 90 | ≥ 90 | ≥ 80 | ≥ 80 | ≥ 90 | ≥ 90 | ≥ 80 | – | – |
